Reference: patent US20240124460A1, “METHODS AND COMPOSITIONS FOR TARGETED PROTEIN DEGRADATION” (Ranok Therapeutics (Hangzhou) Co. Ltd., priority 2020, published 2024)

What was measured:
[1] = system: MV-4-11 human acute myeloid leukemia; test: MV-4-11 CCK-8 proliferation assay; assay type: cell-based; conditions: Homo sapiens, MV4-11; MV-4-11 cells, 72 hr
How it was run: (§1)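 3-fold dilution series, 20 μM–1.02 nM; ATCC culture conditions; CCK-8 absorbance read-out; % inhibition = 100 − (D−B)/(S−B)×100, S = DMSO cells, B = medium + DMSO, no cells.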

[2] = molecular target: T1, HSP90α protein (Homo sapiens, UniProt P07900); test: HSP90α-binding FP (BODIPY) assay; conditions: FP competition with BODIPY-labeled RNK04010
T1 construct: purchased BPS Bioscience #50298
Protocol: Binding of test compounds to HSP90α protein was measured by fluorescent polarization (FP) using the HSP90α (N-terminal) Assay Kit (BPS Bioscience, #50298), following the manufacturer's instructions, except as noted. Fluorescently labeled HSP90-binding compounds, either the provided FITC-geldanamycin (5 nM final concentration) or RNK04010, a triazolone-based HSP90 binding small molecule labeled with BODIPY through a piperazine-phenyl linker (5 nM final concentration) were employed. A 2.5-fold serial dilution of each test compound ranging from 20 μM to 5.2 nM was assayed for binding to HSP90α. After the final step of adding HSP90α protein to each assay well, plates were mixed by brief shaking, incubated at 25° C. for 120 min for FITC-geldanamycin or 300 min for RNK04010, and fluorescence was measured using a PerkinElmer EnVision Plate Reader.

[3] = system: U-87 MG human glioblastoma; test: U87 MG CCK-8 proliferation assay; assay type: cell-based; conditions: Homo sapiens, U-87 MG, 72 h, U-87 MG cells, read-out: U87MG CCK-8
How it was run: as §1

SMILES | EC50 [1] [nM] | IC50 [2] [nM] | EC50 [3] [nM]
CCOc1cc(N2CCC(C(=O)NCCOCCOc3ccc(Nc4ccc(-n5nc(C(F)(F)F)c6c5CC(C)(C)CC6=O)cc4C(N)=O)cc3)CC2)ccc1Nc1ncc2c(n1)N(S(C)(=O)=O)c1ccccc1C(=O)N2C [Compound 067, N-(2-(2-(4-((2-carbamoyl-4-(6,6-dimethyl-4-oxo-3-(trifluoromethyl)-4,5,6,7-tetrahydro-1H-indazol-1-yl)phenyl)amino)phenoxy)ethoxy)ethyl)-1-(3-ethoxy-4-((5-methyl-11-(methylsulfonyl)-6-oxo-6,11-dihydro-5H-benzo[e]pyrimido[5,4-b][1,4]diazepin-2-yl)amino)phenyl)piperidine-4-carboxamide] | 100 to 1000 | > 1000 | > 1000
CCOc1cc(N2CCC(C(=O)N3CCC(CN4CCN(CCCOc5ccc(Nc6ccc(-n7nc(C(F)(F)F)c8c7CC(C)(C)CC8=O)cc6C(N)=O)cc5)CC4)CC3)CC2)ccc1Nc1ncc2c(n1)N(S(C)(=O)=O)c1ccccc1C(=O)N2C [Compound 068, 5-(6,6-dimethyl-4-oxo-3-(trifluoromethyl)-4,5,6,7-tetrahydro-1H-indazol-1-yl)-2-((4-(3-(4-((1-(1-(3-ethoxy-4-((5-methyl-11-(methylsulfonyl)-6-oxo-6,11-dihydro-5H-benzo[e]pyrimido[5,4-b][1,4]diazepin-2-yl)amino)phenyl)piperidine-4-carbonyl)piperidin-4-yl)methyl)piperazin-1-yl)propoxy)phenyl)amino)benzamide] | 100 to 1000 | > 1000 | > 1000
CCOc1cc(N2CCC(C(=O)N3CCC(N4CCN(Cc5ccc(-n6c(O)nnc6-c6cc(C(C)C)c(O)cc6O)cc5C(F)(F)F)CC4)CC3)CC2)ccc1Nc1ncc2c(n1)N(S(C)(=O)=O)c1ccccc1C(=O)N2C [Compound 069, 2-((4-(4-(4-(4-(4-(3-(2,4-dihydroxy-5-isopropylphenyl)-5-hydroxy-4H-1,2,4-triazol-4-yl)-2-(trifluoromethyl)benzyl)piperazin-1-yl)piperidine-1-carbonyl)piperidin-1-yl)-2-ethoxyphenyl)amino)-5-methyl-11-(methylsulfonyl)-5,11-dihydro-6H-benzo[e]pyrimido[5,4-b][1,4]diazepin-6-one] | < 100 | 100 to 1000 | 100 to 1000
CCOc1cc(N2CCC(C(=O)N3CCN(Cc4ccc(-n5c(O)nnc5-c5cc(C(C)C)c(O)cc5O)cc4C(F)(F)F)CC3)CC2)ccc1Nc1ncc2c(n1)N(S(C)(=O)=O)c1ccccc1C(=O)N2C [Compound 072, 2-((4-(4-(4-(4-(3-(2,4-dihydroxy-5-isopropylphenyl)-5-hydroxy-4H-1,2,4-triazol-4-yl)-2-(trifluoromethyl)benzyl)piperazine-1-carbonyl)piperidin-1-yl)-2-ethoxyphenyl)amino)-5-methyl-11-(methylsulfonyl)-5,11-dihydro-6H-benzo[e]pyrimido[5,4-b][1,4]diazepin-6-one] | < 100 | 100 to 1000 | 100 to 1000
CCOc1cc(N2CCC(C(=O)N3CCC(Cc4ccc(CN(C)Cc5ccc(-n6c(C(=O)NCC(F)(F)F)nnc6-c6cc(C(C)C)c(O)cc6O)cc5)cc4)CC3)CC2)ccc1Nc1ncc2c(n1)N(S(C)(=O)=O)c1ccccc1C(=O)N2C [Compound 076, 5-(2,4-dihydroxy-5-isopropylphenyl)-4-(4-(((4-((1-(1-(3-ethoxy-4-((5-methyl-11-(methylsulfonyl)-6-oxo-6,11-dihydro-5H-benzo[e]pyrimido[5,4-b][1,4]diazepin-2-yl)amino)phenyl)piperidine-4-carbonyl)piperidin-4-yl)methyl)benzyl)(methyl)amino)methyl)phenyl)-N-(2,2,2-trifluoroethyl)-4H-1,2,4-triazole-3-carboxamide] | 100 to 1000 | > 1000 | > 1000
CCOc1cc(N2CCC(C(=O)N3CCC(CN4CCN(Cc5ccc(-n6c(C(=O)NCC(F)(F)F)nnc6-c6cc(C)c(O)cc6O)cc5)CC4)CC3)CC2)ccc1Nc1ncc2c(n1)N(S(C)(=O)=O)c1ccccc1C(=O)N2C [Compound 081, 5-(2,4-dihydroxy-5-methylphenyl)-4-(4-((4-((1-(1-(3-ethoxy-4-((5-methyl-11-(methylsulfonyl)-6-oxo-6,11-dihydro-5H-benzo[e]pyrimido[5,4-b][1,4]diazepin-2-yl)amino)phenyl)piperidine-4-carbonyl)piperidin-4-yl)methyl)piperazin-1-yl)methyl)phenyl)-N-(2,2,2-trifluoroethyl)-4H-1,2,4-triazole-3-carboxamide] | < 100 | < 100 | 100 to 1000

Second part, the compound after the results:

EC50 [1] [nM] | IC50 [2] [nM] | EC50 [3] [nM] | SMILES
< 100 | < 100 | < 100 | CCOc1cc(N2CCC(C(=O)N3CCC(N4CCN(Cc5ccc(-n6c(O)nnc6-c6cc(C(C)C)c(O)cc6O)cc5)CC4)CC3)CC2)ccc1Nc1ncc2c(n1)N(S(C)(=O)=O)c1ccccc1C(=O)N2C [Compound 064, 2-((4-(4-(4-(4-(4-(3-(2,4-dihydroxy-5-isopropylphenyl)-5-hydroxy-4H-1,2,4-triazol-4-yl)benzyl)piperazin-1-yl)piperidine-1-carbonyl)piperidin-1-yl)-2-ethoxyphenyl)amino)-5-methyl-11-(methylsulfonyl)-5,11-dihydro-6H-benzo[e]pyrimido[5,4-b][1,4]diazepin-6-one]
100 to 1000 | 100 to 1000 | > 1000 | CCOc1cc(N2CCC(C(=O)NCc3ccc(-n4c(O)nnc4-c4cc(CC)c(O)cc4O)cc3)CC2)ccc1Nc1ncc2c(n1)N(S(C)(=O)=O)c1ccccc1C(=O)N2C [Compound 071, 1-(3-ethoxy-4-((5-methyl-11-(methylsulfonyl)-6-oxo-6,11-dihydro-5H-benzo[e]pyrimido[5,4-b][1,4]diazepin-2-yl)amino)phenyl)-N-(4-(3-(5-ethyl-2,4-dihydroxyphenyl)-5-hydroxy-4H-1,2,4-triazol-4-yl)benzyl)piperidine-4-carboxamide]
> 1000 | > 1000 | > 1000 | CCOc1cc(N2CCC(C(=O)NCc3ccc(-n4c(O)nnc4-c4cc(C)c(O)cc4O)cc3)CC2)ccc1Nc1ncc2c(n1)N(S(C)(=O)=O)c1ccccc1C(=O)N2C [Compound 073, N-(4-(3-(2,4-dihydroxy-5-methylphenyl)-5-hydroxy-4H-1,2,4-triazol-4-yl)benzyl)-1-(3-ethoxy-4-((5-methyl-11-(methylsulfonyl)-6-oxo-6,11-dihydro-5H-benzo[e]pyrimido[5,4-b][1,4]diazepin-2-yl)amino)phenyl)piperidine-4-carboxamide]
100 to 1000 | > 1000 | > 1000 | CCCc1cc(-c2nnc(O)n2-c2ccc(CNC(=O)C3CCN(c4ccc(Nc5ncc6c(n5)N(S(C)(=O)=O)c5ccccc5C(=O)N6C)c(OCC)c4)CC3)cc2)c(O)cc1O [Compound 074, N-(4-(3-(2,4-dihydroxy-5-propylphenyl)-5-hydroxy-4H-1,2,4-triazol-4-yl)benzyl)-1-(3-ethoxy-4-((5-methyl-11-(methylsulfonyl)-6-oxo-6,11-dihydro-5H-benzo[e]pyrimido[5,4-b][1,4]diazepin-2-yl)amino)phenyl)piperidine-4-carboxamide]
< 100 | 100 to 1000 | 100 to 1000 | CCOc1cc(N2CCC(C(=O)N[C@H](C)c3ccc(CN4CCC(Cc5ccc(-n6c(O)nnc6-c6cc(C(C)C)c(O)cc6O)cc5)CC4)cc3)CC2)ccc1Nc1ncc2c(n1)N(S(C)(=O)=O)c1ccccc1C(=O)N2C [Compound 077, (R)—N-(1-(4-((4-(4-(3-(2,4-dihydroxy-5-isopropylphenyl)-5-hydroxy-4H-1,2,4-triazol-4-yl)benzyl)piperidin-1-yl)methyl)phenyl)ethyl)-1-(3-ethoxy-4-((5-methyl-11-(methylsulfonyl)-6-oxo-6,11-dihydro-5H-benzo[e]pyrimido[5,4-b][1,4]diazepin-2-yl)amino)phenyl)piperidine-4-carboxamide]
100 to 1000 | < 100 | > 1000 | CCOc1cc(N2CCC(C(=O)NCC3CCN(C(=O)C4CCN(Cc5ccc(-n6c(O)nnc6-c6cc(CC)c(O)cc6O)cc5)CC4)CC3)CC2)ccc1Nc1ncc2c(n1)N(S(C)(=O)=O)c1ccccc1C(=O)N2C [Compound 079, 1-(3-ethoxy-4-((5-methyl-11-(methylsulfonyl)-6-oxo-6,11-dihydro-5H-benzo[e]pyrimido[5,4-b][1,4]diazepin-2-yl)amino)phenyl)-N-((1-(1-(4-(3-(5-ethyl-2,4-dihydroxyphenyl)-5-hydroxy-4H-1,2,4-triazol-4-yl)benzyl)piperidine-4-carbonyl)piperidin-4-yl)methyl)piperidine-4-carboxamide]
< 100 | 100 to 1000 | > 1000 | CCOc1cc(N2CCC(C(=O)NCc3ccc(-n4c(O)nnc4-c4cc(C(C)C)c(O)cc4O)cc3)CC2)ccc1Nc1ncc2c(n1)N(S(C)(=O)=O)c1ccccc1C(=O)N2C [Compound 080, N-(4-(3-(2,4-dihydroxy-5-isopropylphenyl)-5-hydroxy-4H-1,2,4-triazol-4-yl)benzyl)-1-(3-ethoxy-4-((5-methyl-11-(methylsulfonyl)-6-oxo-6,11-dihydro-5H-benzo[e]pyrimido[5,4-b][1,4]diazepin-2-yl)amino)phenyl)piperidine-4-carboxamide]
